In patent US9227971B2, “Pyrazolo[1,5-a]pyrimidine compounds as mTOR inhibitors” (Merck Sharp & Dohme Corp., priority 2010, dated 2016):
Like-named read-outs stand apart in the source and are kept apart here.

Assays:
[1] = system: phosphorylated AKT Ser473 (pAKT S473), mTORC2 activity, PC3 cells; assay: mTOR target engagement assay, immunofluorescent cell-based, pAKT S473 readout (mTORC2 activity)
In short: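 After blocking, cells were stained overnight at 4 °C with anti-pAKT S473 antibody, then a fluorescent secondary; inhibition was read as reduced fluorescence intensity.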

[2] = system: phosphorylated 4E-BP1 Thr37/46 (p4E-BP1 Thr37/46), mTORC1 activity, PC3 cells; assay: mTOR target engagement assay, immunofluorescent cell-based, p4E-BP1 Thr37/46 readout (mTORC1 activity); conditions: read-out: p4E-BP1 Thr37/46 IC50
In short: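 PTEN-mutant PC3 prostate cells were treated with serially diluted compound in 5% FBS F12 medium (0.25% DMSO) for ninety minutes at 37° C, glyoxal-fixed, then immunostained overnight at 4° C for p4E-BP1 Thr37/46 with an Alexa Fluor 488 secondary. IC50 came from four-parameter fits of fluorescence, DMSO-only wells defining 100%.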

[3] = Homo sapiens, PC-3, Table 3-1, PC3 cells
[4] = Homo sapiens, PC-3, PC3 cells, compound treatment ninety minutes at 37° C.
[5] = Homo sapiens, PC-3, Table 7-8, PC3 cells
[6] = Homo sapiens, PC-3, Table 6-1, PC3 cells

Compound	IC50 [1, 3] [nM]	IC50 [2, 3] [nM]	IC50 [1, 4] [nM]	IC50 [2, 4] [nM]	further results
CCOc1ccc(-c2ccc(-c3cnn4c(N)c(S(C)(=O)=O)c([C@@H]5C[C@H]6CC[C@@H](C5)N6C(=O)c5nnc[nH]5)nc34)cn2)cc1 [Compound 3.60, ((1R,3s,5S)-3-(7-amino-3-(6-(4-ethoxyphenyl)pyridin-3-yl)-6-(methylsulfonyl)pyrazolo[1,5-a]pyrimidin-5-yl)-8-azabicyclo[3.2.1]octan-8-yl)(4H-1,2,4-triazol-3-yl)methanone]	1 to 100	1 to 100	–	–	–
CS(=O)(=O)c1c([C@@H]2C[C@H]3CC[C@@H](C2)N3c2ncncc2N)nc2c(-c3ccc(-c4ccccc4)nc3)cnn2c1N [Compound 8.64, 5-((1R,3s,5S)-8-(5-aminopyrimidin-4-yl)-8-azabicyclo[3.2.1]octan-3-yl)-6-(methylsulfonyl)-3-(6-phenylpyridin-3-yl)pyrazolo[1,5-a]pyrimidin-7-amine]	–	–	–	–	IC50 ([1]; Homo sapiens, PC-3, PC3 cells): 100 to 1000 nM; IC50 ([2]; Homo sapiens, PC-3, PC3 cells): 1000 to 10000 nM
CS(=O)(=O)c1c([C@@H]2C[C@H]3CC[C@@H](C2)N3C(=O)c2nnc[nH]2)nc2c(-c3ccc(-c4ccc(OCF)cc4)nc3)cnn2c1N [Compound 3.63, ((1R,3s,5S)-3-(7-amino-3-(6-(4-(fluoromethoxy)phenyl)pyridin-3-yl)-6-(methylsulfonyl)pyrazolo[1,5-a]pyrimidin-5-yl)-8-azabicyclo[3.2.1]octan-8-yl)(4H-1,2,4-triazol-3-yl)methanone]	–	–	–	–	IC50 ([1]; Table 3-1, PC3 cells): 1 to 100 nM; IC50 ([2]; Table 3-1, PC3 cells): 1 to 100 nM
CCOc1ccc(-c2ccc(-c3cnn4c(N)c(C(C)=O)c([C@@H]5C[C@H]6CC[C@@H](C5)N6C(=O)c5nnc[nH]5)nc34)cn2)cc1 [Compound 1.1.73, 1-(5-((1R,3s,5S)-8-(4H-1,2,4-triazole-3-carbonyl)-8-azabicyclo[3.2.1]octan-3-yl)-7-amino-3-(6-(4-ethoxyphenyl)pyridin-3-yl)pyrazolo[1,5-a]pyrimidin-6-yl)ethanone]	–	–	1 to 100	1 to 100	–
CS(=O)(=O)c1c([C@@H]2C[C@H]3CC[C@@H](C2)N3C(=O)C(O)C(F)(F)F)nc2c(-c3ccc(-c4ccccc4)nc3)cnn2c1N (stereo partly drawn) [Compound 3.15, 1-((1R,3s,5S)-3-(7-amino-6-(methylsulfonyl)-3-(6-phenylpyridin-3-yl)pyrazolo[1,5-a]pyrimidin-5-yl)-8-azabicyclo[3.2.1]octan-8-yl)-3,3,3-trifluoro-2-hydroxypropan-1-one]	1000 to 10000	1000 to 10000	–	–	–
((1R,3s,5S)-3-(7-amino-3-(6-(1-methyl-(D3)-1H-pyrazol-3-yl)pyridin-3-yl)-6-(methylsulfonyl)pyrazolo[1,5-a]pyrimidin-5-yl)-8-azabicyclo[3.2.1]octan-8-yl)(4H-1,2,4-triazol-3-yl)methanone [Compound 3.70]	–	–	–	–	IC50 ([1]; Table 3-1, PC3 cells): 100 to 1000 nM; IC50 ([2]; Table 3-1, PC3 cells): 100 to 1000 nM
CC(=O)c1c([C@@H]2C[C@H]3CC[C@@H](C2)N3C(=O)c2nnc(N)[nH]2)nc2c(-c3ccc(C(C)(C)O)nc3)cnn2c1N [Compound 7.13, 1-(7-amino-5-((1R,3s,5S)-8-(5-amino-4H-1,2,4-triazole-3-carbonyl)-8-azabicyclo[3.2.1]octan-3-yl)-3-(6-(2-hydroxypropan-2-yl)pyridin-3-yl)pyrazolo[1,5-a]pyrimidin-6-yl)ethanone]	–	–	100 to 1000	100 to 1000	–
COCc1cc(-c2ccc(-c3cnn4c(N)c(C(C)=O)c([C@@H]5C[C@H]6CC[C@@H](C5)N6C(=O)c5nnc[nH]5)nc34)cn2)ccc1OC [Compound 1.1.45, 1-(5-((1R,3s,5S)-8-(4H-1,2,4-triazole-3-carbonyl)-8-azabicyclo[3.2.1]octan-3-yl)-7-amino-3-(6-(4-methoxy-3-(methoxymethyl)phenyl)pyridin-3-yl)pyrazolo[1,5-a]pyrimidin-6-yl)ethanone]	–	–	1 to 100	1 to 100	–
CCNC(=O)N1[C@@H]2CC[C@H]1C[C@H](c1nc3c(-c4ccc(-c5ccccc5)nc4)cnn3c(N)c1C1CC1)C2 [Compound 4.5, (1R,3s,5S)-3-(7-amino-6-cyclopropyl-3-(6-phenylpyridin-3-yl)pyrazolo[1,5-a]pyrimidin-5-yl)-N-ethyl-8-azabicyclo[3.2.1]octane-8-carboxamide]	–	–	100 to 1000	100 to 1000	–
CC(O)c1ccc(-c2cnn3c(N)c(S(C)(=O)=O)c([C@@H]4C[C@H]5CC[C@@H](C4)N5C(=O)c4nnc[nH]4)nc23)cc1 (stereo partly drawn) [Compound 7.51, ((1R,3s,5S)-3-(7-amino-3-(4-(1-hydroxyethyl)phenyl)-6-(methylsulfonyl)pyrazolo [1,5-a]pyrimidin-5-yl)-8-azabicyclo[3.2.1]octan-8-yl)(4H-1,2,4-triazol-3-yl)methanone]	–	–	–	–	IC50 [1, 5]: 1 to 100 nM; IC50 [2, 5]: 1 to 100 nM
COCC(=O)N1[C@@H]2CC[C@H]1C[C@H](c1nc3c(-c4ccc(-c5ncc[nH]5)nc4)cnn3c(N)c1C(C)=O)C2 [Compound 6.16, 1-((1R,3s,5S)-3-(3-(6-(1H-imidazol-2-yl)pyridin-3-yl)-6-acetyl-7-aminopyrazolo[1,5-a]pyrimidin-5-yl)-8-azabicyclo[3.2.1]octan-8-yl)-2-methoxyethanone]	–	–	–	–	IC50 [1, 6]: 1 to 100 nM; IC50 [2, 6]: 1 to 100 nM
COc1ccc(-c2ccc(-c3cnn4c(N)c(S(C)(=O)=O)c([C@@H]5C[C@H]6CC[C@@H](C5)N6C(=O)c5nnc[nH]5)nc34)cn2)cc1F [Compound 3.37, ((1R,3s,5S)-3-(7-amino-3-(6-(3-fluoro-4-methoxyphenyl)pyridin-3-yl)-6-(methylsulfonyl)pyrazolo[1,5-a]pyrimidin-5-yl)-8-azabicyclo[3.2.1]octan-8-yl)(4H-1,2,4-triazol-3-yl)methanone]	1 to 100	1 to 100	–	–	–
CC(=O)c1c([C@@H]2C[C@H]3CC[C@@H](C2)N3C(=O)c2nnc[nH]2)nc2c(-c3cnc(-c4ccn(C)n4)c(F)c3)cnn2c1N [Compound 1.1.112, 1-(5-((1R,3s,5S)-8-(4H-1,2,4-triazole-3-carbonyl)-8-azabicyclo[3.2.1]octan-3-yl)-7-amino-3-(5-fluoro-6-(1-methyl-1H-pyrazol-3-yl)pyridin-3-yl)pyrazolo[1,5-a]pyrimidin-6-yl)ethanone]	–	–	1000 to 10000	1000 to 10000	–
CS(=O)(=O)c1c([C@@H]2C[C@H]3CC[C@@H](C2)N3C(=O)c2nnc[nH]2)nc2c(-c3ccc(-c4ccc(F)cc4)nc3)cnn2c1N [Compound 3.105, ((1R,3s,5S)-3-(7-amino-3-(6-(4-fluorophenyl)pyridin-3-yl)-6-(methylsulfonyl)pyrazolo[1,5-a]pyrimidin-5-yl)-8-azabicyclo[3.2.1]octan-8-yl)(4H-1,2,4-triazol-3-yl)methanone]	1 to 100	1 to 100	–	–	–
CS(=O)(=O)c1c([C@@H]2C[C@H]3CC[C@@H](C2)N3C(=O)c2nnc[nH]2)nc2c(-c3ccc(-c4cccc(F)c4)nc3)cnn2c1N [Compound 3.46, ((1R,3s,5S)-3-(7-amino-3-(6-(3-fluorophenyl)pyridin-3-yl)-6-(methylsulfonyl)pyrazolo[1,5-a]pyrimidin-5-yl)-8-azabicyclo[3.2.1]octan-8-yl)(4H-1,2,4-triazol-3-yl)methanone]	1 to 100	1 to 100	–	–	–
Cc1n[nH]c(CC(=O)N2[C@@H]3CC[C@H]2C[C@H](c2nc4c(-c5ccc(-c6ccccc6)nc5)cnn4c(N)c2S(C)(=O)=O)C3)n1 [Compound 3.82, 1-((1R,3s,5S)-3-(7-amino-6-(methylsulfonyl)-3-(6-phenylpyridin-3-yl)pyrazolo[1,5-a]pyrimidin-5-yl)-8-azabicyclo[3.2.1]octan-8-yl)-2-(3-methyl-1H-1,2,4-triazol-5-yl)ethanone]	100 to 1000	100 to 1000	–	–	–
COc1ccc(-c2ncc(-c3cnn4c(N)c(S(C)(=O)=O)c([C@@H]5C[C@H]6CC[C@@H](C5)N6C(=O)c5nnc[nH]5)nc34)cn2)cc1F [Compound 3.147, ((1R,3s,5S)-3-(7-amino-3-(2-(3-fluoro-4-methoxyphenyl)pyrimidin-5-yl)-6-(methylsulfonyl)pyrazolo[1,5-a]pyrimidin-5-yl)-8-azabicyclo[3.2.1]octan-8-yl)(4H-1,2,4-triazol-3-yl)methanone]	1000 to 10000	1000 to 10000	–	–	–
Cn1ccc(-c2ccc(-c3cnn4c(N)c(S(C)(=O)=O)c([C@@H]5C[C@H]6CC[C@@H](C5)N6C(=O)c5nnc[nH]5)nc34)c[n+]2[O-])n1 [Compound 3.41, 5-(5-((1R,3s,5S)-8-(4H-1,2,4-triazole-3-carbonyl)-8-azabicyclo[3.2.1]octan-3-yl)-7-amino-6-(methylsulfonyl)pyrazolo[1,5-a]pyrimidin-3-yl)-2-(1-methyl-1H-pyrazol-3-yl)pyridine 1-oxide]	1 to 100	100 to 1000	–	–	–
CC(=O)c1c([C@@H]2C[C@H]3CC[C@@H](C2)N3C(=O)c2cn[nH]c2)nc2c(-c3ccc(C(C)(C)O)nc3)cnn2c1N [Compound 7.12, 1-(5-((1R,3s,5S)-8-(1H-pyrazole-4-carbonyl)-8-azabicyclo[3.2.1]octan-3-yl)-7-amino-3-(6-(2-hydroxypropan-2-yl)pyridin-3-yl)pyrazolo[1,5-a]pyrimidin-6-yl)ethanone]	–	–	100 to 1000	100 to 1000	–
